The record followed here is patent publication US7491794B2, “Macrocyclic compounds as inhibitors of viral replication” (Intermune, Inc., priority 2003, dated 2009).

SMILES strings stand for the structures. pEC50, pIC50: −log10 of the molar value.

The target in one assay is T1, NS3-NS4A protease (Hepatitis C virus genotype 1a, UniProt P27958).
T1 construct: Recombinant E. coli or Baculovirus full-length NS3 was diluted to 3.33 μM with assay buffer; made in house; host or cells: E. coli or baculovirus (BV) system
The assay is described as follows: NS3-NS4A protease assay (NS3 inhibition assay, RETS1 substrate), Section B. The assay is classed as biochemical. The note with it: read-out: NS3-NS4A IC50. In outline:
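Full-length NS3 (E. coli or baculovirus) precomplexed with excess NS4A-2 peptide, run at 2 nM (E. coli) or 3 nM (BV) NS3; compounds pre-incubated 10 min at room temperature before RETS1 substrate. Fluorescence (ex 335/em 495 nm) read kinetically 30 min; IC50 from four-parameter fit, converted to Ki via Ki=IC50/(1+[S]/Km).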

Assay [1] has as its system HCV sub-genomic replicon, GS4.3. Briefly: Quantitation by ELISA of NPTII in the HCV sub-genomic replicon, GS4.3, Section B. The assay is classed as cell-based. Conditions: Hepatitis C virus; GS4.3 cells, 72 h incubation; read-out: Replicon EC50. In outline:
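GS4.3 cells (HuH-7 carrying HCV 1377/NS3-3′ replicon) were treated 72 h at 37 °C with inhibitors in 3-fold dilutions, 1% DMSO, no G418. Lysate NPTII was measured by ELISA (TMB, 450 nm). Signal as % of DMSO control; EC50 from 4-parameter fit.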
Background: An ELISA detects its analyte on a solid surface through an enzyme-linked reagent.

T1 sequence (P27958 1027-1657): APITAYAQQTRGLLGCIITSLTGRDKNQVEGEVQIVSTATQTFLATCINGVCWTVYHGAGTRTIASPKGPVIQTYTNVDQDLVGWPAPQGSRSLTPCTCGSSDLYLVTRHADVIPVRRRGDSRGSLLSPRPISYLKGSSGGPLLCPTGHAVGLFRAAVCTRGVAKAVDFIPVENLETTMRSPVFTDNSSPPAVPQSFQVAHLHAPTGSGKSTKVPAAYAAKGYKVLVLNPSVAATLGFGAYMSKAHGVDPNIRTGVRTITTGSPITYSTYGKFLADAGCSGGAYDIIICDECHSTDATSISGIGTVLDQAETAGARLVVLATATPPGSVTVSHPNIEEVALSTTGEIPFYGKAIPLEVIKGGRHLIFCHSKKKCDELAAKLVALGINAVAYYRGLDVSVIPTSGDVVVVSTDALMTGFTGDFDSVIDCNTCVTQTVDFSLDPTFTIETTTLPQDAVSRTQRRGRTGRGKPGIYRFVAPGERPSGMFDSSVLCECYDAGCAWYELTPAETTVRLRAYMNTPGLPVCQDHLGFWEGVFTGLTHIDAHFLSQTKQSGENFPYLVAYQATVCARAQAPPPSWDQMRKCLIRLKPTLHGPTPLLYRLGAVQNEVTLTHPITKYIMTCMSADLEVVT

The term pIC50 denotes the negative decadic logarithm of the IC50, by convention in mol/L. For orientation: pEC50 means the EC50 on a negative log10 scale, so that one unit is a factor of ten. `CC(C)(C)OC(=O)N[C@H]1CCCCC/C=C\[C@@H]2C[C@@]2(C(=O)NS(C)(=O)=O)NC(=O)[C@@H]2C[C@@H](OC(=O)N3CCc4ccccc4C3)CN2C1=O` [AR00254906, (1S,4R,6S,14S,18R)-3,4-Dihydro-1H-isoquinoline-2-carboxylic acid 14-tert-butoxycarbonylamino-4-methanesulfonylaminocarbonyl-2,15-dioxo-3,16-diaza-tricyclo[14.3.0.0^4,6]nonadec-7-en-18-yl ester]: at NS3-NS4A protease, the pIC50 is more than 7.00. Further, the pEC50 in assay [1] was more than 6.00.
In the case of `CC(C)(C)OC(=O)N[C@H]1CCCCC/C=C\[C@@H]2C[C@@]2(C(=O)NS(=O)(=O)C2CC2)NC(=O)[C@@H]2C[C@@H](OC(=O)N3CCc4c(F)cccc4C3)CN2C1=O` [AR00298996, (1S,4R,6S,14S,18R)-5-Fluoro-3,4-dihydro-1H-isoquinoline-2-carboxylic acid 14-tert-butoxycarbonylamino-4-cyclopropanesulfonylaminocarbonyl-2,15-dioxo-3,16-diaza-tricyclo[14.3.0.0^4,6]nonadec-7-en-18-yl ester], at NS3-NS4A protease, the pIC50 was more than 7.00. The pEC50 in assay [1] is more than 7.00.
`CC(C)(C)OC(=O)N[C@H]1CCCCC/C=C\[C@@H]2C[C@@]2(C(=O)NS(=O)(=O)C2CC2)NC(=O)[C@@H]2C[C@@H](OC(=O)N3Cc4ccc(OCCn5cccn5)cc4C3)CN2C1=O` [AR00364924, (1S,4R,6S,14S,18R)-5-(2-Pyrazol-1-yl-ethoxy)-1,3-dihydro-isoindole-2-carboxylic acid 14-tert-butoxycarbonylamino-4-cyclopropanesulfonylaminocarbonyl-2,15-dioxo-3,16-diaza-tricyclo[14.3.0.0^4,6]nonadec-7-en-18-yl ester]: the pIC50 at NS3-NS4A protease is more than 7.00. The pEC50 in assay [1] was more than 7.00.
Take `CC(C)(C)OC(=O)N[C@H]1CCCCC/C=C\[C@@H]2C[C@@]2(C(=O)O)NC(=O)[C@@H]2C[C@@H](OC(=O)N3Cc4cc(Cl)c(Cl)cc4C3)CN2C1=O` [AR00315999, (1S,4R,6S,14S,18R)-14-tert-Butoxycarbonylamino-18-(5,6-dichloro-1,3-dihydro-isoindole-2-carbonyloxy)-2,15-dioxo-3,16-diaza-tricyclo[14.3.0.0^4,6]nonadec-7-ene-4-carboxylic acid]: the pIC50 on NS3-NS4A protease is more than 6.00. The pEC50 in assay [1] is more than 5.00.
On the same counts, the results for `CC(C)(C)OC(=O)N[C@H]1CCCCC/C=C\[C@@H]2C[C@@]2(C(=O)NS(=O)(=O)C2CC2)NC(=O)[C@@H]2C[C@@H](OC(=O)N3Cc4ccc(N)cc4C3)CN2C1=O` [AR00334286, (1S,4R,6S,14S,18R)-5-Amino-1,3-dihydro-isoindole-2-carboxylic acid 14-tert-butoxycarbonylamino-4-cyclopropanesulfonylaminocarbonyl-2,15-dioxo-3,16-diaza-tricyclo[14.3.0.0^4,6]nonadec-7-en-18-yl ester] are more than 7.00 and more than 7.00.
For `O=C(NC1CCCC1)N[C@H]1CCCCC/C=C\[C@@H]2C[C@@]2(C(=O)NS(=O)(=O)C2CC2)NC(=O)[C@@H]2C[C@@H](OC(=O)N3Cc4ccccc4C3)CN2C1=O` [AR00304082, (1S,4R,6S,14S,18R)-1,3-Dihydro-isoindole-2-carboxylic acid 14-(3-cyclopentyl-ureido)-4-cyclopropanesulfonylaminocarbonyl-2,15-dioxo-3,16-diaza-tricyclo[14.3.0.0^4,6]nonadec-7-en-18-yl ester], at NS3-NS4A protease, the pIC50 is more than 7.00. Further, the pEC50 in assay [1] is more than 7.00.
`COCC1c2ccc(OC)cc2CCN1C(=O)O[C@@H]1CC2C(=O)N[C@]3(C(=O)NS(=O)(=O)C4CC4)C[C@H]3/C=C\CCCCC[C@H](NC(=O)OC(C)(C)C)C(=O)N2C1` (stereo partly drawn) [AR00334339, (1S,4R,6S,14S,18R)-6-Methoxy-1-methoxymethyl-3,4-dihydro-1H-isoquinoline-2-carboxylic acid 14-tert-butoxycarbonylamino-4-cyclopropanesulfonylaminocarbonyl-2,15-dioxo-3,16-diaza-tricyclo[14.3.0.0^4,6]nonadec-7-en-18-yl ester]: the pIC50 at NS3-NS4A protease is more than 7.00. Also, the pEC50 in assay [1] was more than 7.00.
Take `CC(C)(C)OC(=O)N[C@H]1CCCCC/C=C\[C@@H]2C[C@@]2(C(=O)NS(=O)(=O)C2CC2)NC(=O)[C@@H]2C[C@@H](OC(=O)N3Cc4ccccc4C4(CCC4)C3)CN2C1=O` [AR00312024, (1S,4R,6S,14S,18R)-4,4-Spirocyclobutyl-3,4-dihydro-1H-isoquinoline-2-carboxylic acid 14-tert-butoxycarbonylamino-4-cyclopropanesulfonylaminocarbonyl-2,15-dioxo-3,16-diaza-tricyclo[14.3.0.0^4,6]nonadec-7-en-18-yl ester]: the pIC50 on NS3-NS4A protease was more than 7.00. Further, in assay [1], the pEC50 was more than 7.00.
In the case of `O=C(N[C@H]1CCCCC/C=C\[C@@H]2C[C@@]2(C(=O)NS(=O)(=O)C2CC2)NC(=O)[C@@H]2C[C@@H](OC(=O)N3CCc4ccccc4C3)CN2C1=O)OC1CCOCC1` [AR00320082, (1S,4R,6S,14S,18R)-3,4-Dihydro-1H-isoquinoline-2-carboxylic acid 4-cyclopropanesulfonylaminocarbonyl-2,15-dioxo-14-(tetrahydro-pyran-4-yloxycarbonylamino)-3,16-diaza-tricyclo[14.3.0.0^4,6]nonadec-7-en-18-yl ester], the pIC50 on NS3-NS4A protease was more than 7.00. In addition, the pEC50 in assay [1] is more than 7.00.
Take `CC(C)(OC(=O)N[C@H]1CCCCC/C=C\[C@@H]2C[C@@]2(C(=O)NS(=O)(=O)C2CC2)NC(=O)[C@@H]2C[C@@H](OC(=O)N3CCc4ccccc4C3)CN2C1=O)C(F)(F)F` [AR00320582, (1S,4R,6S,14S,18R)-3,4-Dihydro-1H-isoquinoline-2-carboxylic acid 4-cyclopropanesulfonylaminocarbonyl-2,15-dioxo-14-(2,2,2-trifluoro-1,1-dimethyl-ethoxycarbonylamino)-3,16-diaza-tricyclo[14.3.0.0^4,6]nonadec-7-en-18-yl ester]: at NS3-NS4A protease, the pIC50 was more than 7.00. Further, the pEC50 in assay [1] was more than 7.00.
As for `CC(C)(C)OC(=O)N[C@H]1CCCCC/C=C\[C@@H]2C[C@@]2(C(=O)NS(=O)(=O)c2cc(C(=O)O)c(Cl)cc2F)NC(=O)[C@@H]2C[C@@H](OC(=O)N3Cc4ccccc4C3)CN2C1=O` [AR00365426, (1S,4R,6S,14S,18R)-1,3-Dihydro-isoindole-2-carboxylic acid 14-tert-butoxycarbonylamino-4-(5-carboxy-4-chloro-2-fluoro-benzenesulfonylaminocarbonyl)-2,15-dioxo-3,16-diaza-tricyclo[14.3.0.0^4,6]nonadec-7-en-18-yl ester], at NS3-NS4A protease, the pIC50 is more than 7.00. In addition, in assay [1], the pEC50 is more than 5.00.
`O=C(NC1CCCC1)N[C@H]1CCCCC/C=C\[C@@H]2C[C@@]2(C(=O)NS(=O)(=O)C2CC2)NC(=O)[C@@H]2C[C@@H](OC(=O)N3Cc4cc(Cl)c(Cl)cc4C3)CN2C1=O` [AR00320575, (1S,4R,6S,14S,18R)-5,6-Dichloro-1,3-dihydro-isoindole-2-carboxylic acid 14-(3-cyclopentyl-ureido)-4-cyclopropanesulfonylaminocarbonyl-2,15-dioxo-3,16-diaza-tricyclo[14.3.0.0^4,6]nonadec-7-en-18-yl ester]: the pIC50 on NS3-NS4A protease is more than 7.00. Also, the pEC50 in assay [1] is more than 6.00.
Consider `COc1ccc2[nH]c3c(c2c1)CCN(C(=O)O[C@@H]1C[C@H]2C(=O)N[C@]4(C(=O)O)C[C@H]4/C=C\CCCCC[C@H](NC(=O)OC(C)(C)C)C(=O)N2C1)C3` [AR00320577, (1S,4R,6S,14S,18R)-14-tert-Butoxycarbonylamino-18-(6-methoxy-1,3,4,9-tetrahydro-b-carboline-2-carbonyloxy)-2,15-dioxo-3,16-diaza-tricyclo[14.3.0.0^4,6]nonadec-7-ene-4-carboxylic acid], for which, at NS3-NS4A protease, the pIC50 is more than 6.00. The pEC50 in assay [1] is more than 5.00.
Consider `O=C(N[C@H]1CCCCC/C=C\[C@@H]2C[C@@]2(C(=O)NS(=O)(=O)C2CC2)NC(=O)[C@@H]2C[C@@H](OC(=O)N3Cc4ccccc4C4(CCC4)C3)CN2C1=O)O[C@@H]1CCOC1` [AR00314635, (1S,4R,6S,14S,18R)-4,4-Spirocyclobutyl-3,4-dihydro-1H-isoquinoline-2-carboxylic acid 4-cyclopropanesulfonylaminocarbonyl-2,15-dioxo-14-(tetrahydro-furan-3-yloxycarbonylamino)-3,16-diaza-tricyclo[14.3.0.0^4,6]nonadec-7-en-18-yl ester], for which, on NS3-NS4A protease, the pIC50 is more than 7.00. Also, the pEC50 in assay [1] is more than 7.00.
`O=C(N[C@H]1CCCCC/C=C\[C@@H]2C[C@@]2(C(=O)NS(=O)(=O)C2CC2)NC(=O)[C@@H]2C[C@@H](OC(=O)N3CCc4ccccc4C3)CN2C1=O)OCC(F)F` [AR00320579, (1S,4R,6S,14S,18R)-3,4-Dihydro-1H-isoquinoline-2-carboxylic acid 4-cyclopropanesulfonylaminocarbonyl-14-(2,2-difluoro-ethoxycarbonylamino)-2,15-dioxo-3,16-diaza-tricyclo[14.3.0.0^4,6]nonadec-7-en-18-yl ester]: the pIC50 on NS3-NS4A protease is more than 7.00. Further, the pEC50 in assay [1] was more than 7.00.
For `CC(C)(C)OC(=O)N[C@H]1CCCCC/C=C\[C@@H]2C[C@@]2(C(=O)NS(=O)(=O)C2CC2)NC(=O)[C@@H]2C[C@@H](OC(=O)N3Cc4ccc(OCCn5ccnc5)cc4C3)CN2C1=O` [AR00345096, (1S,4R,6S,14S,18R)-5-(2-Imidazol-1-yl-ethoxy)-1,3-dihydro-isoindole-2-carboxylic acid 14-tert-butoxycarbonylamino-4-cyclopropanesulfonylaminocarbonyl-2,15-dioxo-3,16-diaza-tricyclo[14.3.0.0^4,6]nonadec-7-en-18-yl ester], the pIC50 at NS3-NS4A protease was more than 7.00. In assay [1], the pEC50 was more than 7.00.
